{"source": "ChEMBL document CHEMBL2163292", "about": "“1,2,3-Triazole-containing uracil derivatives with excellent pharmacokinetics as a novel class of potent human deoxyuridine triphosphatase inhibitors” (J Med Chem, 2012)", "key": {"[1]": {"biological_target": "T1, Deoxyuridine 5'-triphosphate nucleotidohydrolase, mitochondrial (Homo sapiens, UniProt P33316)", "T1 sequence (P33316 whole entry)": "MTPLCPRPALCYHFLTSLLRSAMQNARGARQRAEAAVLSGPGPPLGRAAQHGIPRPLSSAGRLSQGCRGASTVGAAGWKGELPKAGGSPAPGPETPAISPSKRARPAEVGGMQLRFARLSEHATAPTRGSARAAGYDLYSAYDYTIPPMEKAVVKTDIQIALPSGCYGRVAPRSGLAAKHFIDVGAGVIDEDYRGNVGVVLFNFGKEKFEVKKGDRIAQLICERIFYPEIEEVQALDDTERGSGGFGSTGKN", "test": "Inhibition of human dUTPase assessed as reduction in [5-3H]dUMP production incubated for 15 mins by HPLC"}, "MX1 [2]": {"tested_on": "MX1", "test": "Antitumor activity against human MX1 cells xenografted in Balb/cA JcL-nu mouse assessed as tumor growth inhibition at 15 mg/kg/day, […] as continuous infusion using osmotic pump and measured twice a week relative to untreated control", "assay_type": "functional"}, "Mus musculus [3]": {"tested_on": "Mus musculus", "test": "Metabolic stability in Balb/cA mouse assessed as metabolite formation at 50 mg/kg, po administered as single dose measured after 0.5 hrs by reverse-phase ultra performance liquid chromatography", "assay_type": "ADME, organism-based", "set-up": "dose 50 mg/kg, route oral", "conditions": "in vivo"}, "[4]": {"test": "Tmax in Balb/cA mouse at 50 mg/kg, po administered as single dose by reverse-phase ultra performance liquid chromatography", "assay_type": "ADME, organism-based", "set-up": "dose 50 mg/kg, route oral", "conditions": "in vivo"}, "[5]": {"test": "Half life in Balb/cA mouse at 50 mg/kg, po administered as single dose by reverse-phase ultra performance liquid chromatography", "assay_type": "ADME, organism-based", "set-up": "dose 50 mg/kg, route oral", "conditions": "in vivo"}, "[6]": {"test": "Cytotoxicity against human HeLaS3 cells incubated for 72 hrs by crystal violet assay", "assay_type": "functional, cell-based", "conditions": "HeLa S3, 72 h"}, "[7]": {"test": "Cmax in Balb/cA mouse at 50 mg/kg, po administered as single dose by reverse-phase ultra performance liquid chromatography", "assay_type": "ADME, organism-based", "set-up": "dose 50 mg/kg, route oral", "conditions": "in vivo"}, "[8]": {"test": "AUC (0 to t) in Balb/cA mouse at 50 mg/kg, po administered as single dose by reverse-phase ultra performance liquid chromatography", "assay_type": "ADME, organism-based", "set-up": "dose 50 mg/kg, route oral", "conditions": "plasma"}, "MX1 [9]": {"tested_on": "MX1", "test": "Potentiation of 5-FU induced antitumour activity against human MX1 cells xenografted in Balb/cA JcL-nu mouse assessed as tumor growth inhibition at 300 mg/kg/day, po for 14 days co-treated with 5-FU at 15 mg/kg/day for 14 days and measured twice weekly relative to untreated control", "assay_type": "functional"}, "MX1 [10]": {"tested_on": "MX1", "test": "Antitumor activity against human MX1 cells xenografted in Balb/cA JcL-nu mouse assessed as tumor growth inhibition at 300 mg/kg/day, po for 14 days and measured twice a week relative to untreated control", "assay_type": "functional", "conditions": "MX1, 336 h"}, "Mus musculus [11]": {"tested_on": "Mus musculus", "test": "Toxicity in Balb/cA JcL-nu mouse xenografted with human MX1 cells assessed as body weight loss at 300 mg/kg/day, po for 14 days co-treated with 5-FU at 15 mg/kg/day for 14 days and measured twice a week relative to untreated control", "assay_type": "organism-based", "conditions": "in vivo, 336 h"}}, "data": [{"smiles": "CC[C@@](O)(Cn1nncc1CCCCn1ccc(=O)[nH]c1=O)c1cccc(OCC(C)C)c1", "values": [{"measurement": "IC50", "setting": "[1]", "result": 550, "unit": "nM"}]}, {"smiles": "O=c1[nH]cc(F)c(=O)[nH]1", "note": "[FLUOROURACIL]", "values": [{"measurement": "inhibition in vivo at 15 mg/kg/day", "setting": "MX1 [2]", "result": 20, "unit": "%"}]}, {"smiles": "CC[C@](O)(Cn1nncc1CCCCn1ccc(=O)[nH]c1=O)c1cccc(OCC2CC2)c1", "values": [{"measurement": "IC50", "setting": "[1]", "result": "> 1000", "unit": "nM"}]}, {"smiles": "C=CCOc1cccc([C@@](O)(CC)Cn2nncc2CCCCn2ccc(=O)[nH]c2=O)c1", "values": [{"measurement": "IC50", "setting": "[1]", "result": 360, "unit": "nM"}]}, {"smiles": "O=c1ccn(CCCCc2cnnn2CCc2ccccc2)c(=O)[nH]1", "values": [{"measurement": "IC50", "setting": "[1]", "result": 3500, "unit": "nM"}]}, {"smiles": "CC[C@](O)(Cn1nncc1CCCCn1ccc(=O)[nH]c1=O)c1ccc(F)c(OCC2CC2)c1", "values": [{"measurement": "IC50", "setting": "[1]", "result": 350, "unit": "nM"}]}, {"smiles": "CCOc1cccc([C@@](O)(CC)Cn2nncc2CCCCn2ccc(=O)[nH]c2=O)c1", "values": [{"measurement": "IC50", "setting": "[1]", "result": "> 1000", "unit": "nM"}]}, {"smiles": "COc1cccc(CCn2nncc2CCCCn2ccc(=O)[nH]c2=O)c1", "values": [{"measurement": "IC50", "setting": "[1]", "result": 4100, "unit": "nM"}]}, {"smiles": "CC[C@@](O)(Cn1nncc1CCCCn1ccc(=O)[nH]c1=O)c1cccc(OCC2CCC2)c1", "values": [{"measurement": "IC50", "setting": "[1]", "result": 150, "unit": "nM"}]}, {"smiles": "O=c1ccn(CCCc2cnnn2CCc2ccccc2)c(=O)[nH]1", "values": [{"measurement": "IC50", "setting": "[1]", "result": "> 10000", "unit": "nM"}]}, {"smiles": "O=c1ccn(CCCc2cnnn2C(c2ccccc2)c2ccccc2)c(=O)[nH]1", "values": [{"measurement": "IC50", "setting": "[1]", "result": "> 10000", "unit": "nM"}]}, {"smiles": "CC[C@@H](Cn1nncc1CCCCn1ccc(=O)[nH]c1=O)c1cccc(OCC2CC2)c1", "values": [{"measurement": "IC50", "setting": "[1]", "result": 29, "unit": "nM"}, {"measurement": "Stability", "setting": "Mus musculus [3]", "result": "Unstable"}, {"measurement": "Tmax", "setting": "[4]", "result": 30, "unit": "min"}, {"measurement": "half-life", "setting": "[5]", "result": 30, "unit": "min"}, {"measurement": "EC50", "setting": "[6]", "result": 22000, "unit": "nM"}, {"measurement": "Cmax", "setting": "[7]", "result": 8.69, "unit": "µM"}, {"measurement": "AUC(0-t)", "setting": "[8]", "result": 4.56, "unit": "µM·h"}]}, {"smiles": "O=c1ccn(CCCc2cnnn2CC(c2ccccc2)c2ccccc2)c(=O)[nH]1", "values": [{"measurement": "IC50", "setting": "[1]", "result": 1300, "unit": "nM"}, {"measurement": "EC50", "setting": "[6]", "result": "> 100000", "unit": "nM"}]}, {"smiles": "CC[C@@](O)(Cn1nncc1CCCCn1ccc(=O)[nH]c1=O)c1cccc(OC2CCCC2)c1", "values": [{"measurement": "IC50", "setting": "[1]", "result": 210, "unit": "nM"}]}, {"smiles": "CC[C@@](O)(Cn1nncc1CCOCn1ccc(=O)[nH]c1=O)c1cccc(OCC2CC2)c1", "values": [{"measurement": "IC50", "setting": "[1]", "result": 170, "unit": "nM"}]}, {"smiles": "CC[C@H](Cn1nncc1CCCCn1ccc(=O)[nH]c1=O)c1cccc(OCC2CC2)c1", "values": [{"measurement": "IC50", "setting": "[1]", "result": 720, "unit": "nM"}]}, {"smiles": "C[C@H](Cn1nncc1CCCCn1ccc(=O)[nH]c1=O)c1cccc(OCC2CC2)c1", "values": [{"measurement": "IC50", "setting": "[1]", "result": 870, "unit": "nM"}]}, {"smiles": "O=c1ccn(CCCCc2cnnn2CC(c2ccccc2)c2ccccc2)c(=O)[nH]1", "values": [{"measurement": "IC50", "setting": "[1]", "result": 740, "unit": "nM"}]}, {"smiles": "CC[C@@](O)(Cn1nncc1CCCCn1ccc(=O)[nH]c1=O)c1cccc(OCC2(C)CC2)c1", "values": [{"measurement": "IC50", "setting": "[1]", "result": 630, "unit": "nM"}]}, {"smiles": "CC[C@@](O)(Cn1nncc1CCCCn1ccc(=O)[nH]c1=O)c1ccc(F)c(OCC2CC2)c1", "values": [{"measurement": "IC50", "setting": "[1]", "result": 67, "unit": "nM"}, {"measurement": "Stability", "setting": "Mus musculus [3]", "result": "Stable"}, {"measurement": "Tmax", "setting": "[4]", "result": 60, "unit": "min"}, {"measurement": "inhibition (INH)", "setting": "MX1 [9]", "result": 84.9, "unit": "%"}, {"measurement": "half-life", "setting": "[5]", "result": 60, "unit": "min"}, {"measurement": "EC50", "setting": "[6]", "result": 41000, "unit": "nM"}, {"measurement": "inhibition in vivo at 300 mg/kg/day", "setting": "MX1 [10]", "result": -23.2, "unit": "%"}, {"measurement": "Cmax", "setting": "[7]", "result": 49.8, "unit": "µM"}, {"measurement": "AUC(0-t)", "setting": "[8]", "result": 57.3, "unit": "µM·h"}, {"measurement": "Activity", "setting": "Mus musculus [11]", "result": "Non-toxic"}]}, {"smiles": "CC[C@@](O)(Cn1nncc1CCCCn1ccc(=O)[nH]c1=O)c1cccc(OCC2CC2)c1", "values": [{"measurement": "IC50", "setting": "[1]", "result": 150, "unit": "nM"}, {"measurement": "Tmax", "setting": "[4]", "result": 30, "unit": "min"}, {"measurement": "half-life", "setting": "[5]", "result": 60, "unit": "min"}, {"measurement": "Cmax", "setting": "[7]", "result": 62.1, "unit": "µM"}, {"measurement": "AUC(0-t)", "setting": "[8]", "result": 67.4, "unit": "µM·h"}]}, {"smiles": "COc1ccccc1CCn1nncc1CCCCn1ccc(=O)[nH]c1=O", "values": [{"measurement": "IC50", "setting": "[1]", "result": 5700, "unit": "nM"}]}, {"smiles": "O=c1ccn(CCCCc2cnnn2C(c2ccccc2)c2ccccc2)c(=O)[nH]1", "values": [{"measurement": "IC50", "setting": "[1]", "result": 1600, "unit": "nM"}]}, {"smiles": "O=c1ccn(CCCCc2cnnn2CCc2ccccc2OCC2CC2)c(=O)[nH]1", "values": [{"measurement": "IC50", "setting": "[1]", "result": 390, "unit": "nM"}]}, {"smiles": "COc1ccc(CCn2nncc2CCCCn2ccc(=O)[nH]c2=O)cc1", "values": [{"measurement": "IC50", "setting": "[1]", "result": "> 10000", "unit": "nM"}]}, {"smiles": "C[C@@H](Cn1nncc1CCCCn1ccc(=O)[nH]c1=O)c1cccc(OCC2CC2)c1", "values": [{"measurement": "IC50", "setting": "[1]", "result": 58, "unit": "nM"}]}, {"smiles": "CC[C@@](O)(Cn1nncc1CCCCn1ccc(=O)[nH]c1=O)c1cccc(OC2CCOCC2)c1", "values": [{"measurement": "IC50", "setting": "[1]", "result": "> 1000", "unit": "nM"}]}, {"smiles": "O=c1ccn(CCCCc2cnnn2CCc2cccc(OCC3CC3)c2)c(=O)[nH]1", "values": [{"measurement": "IC50", "setting": "[1]", "result": 210, "unit": "nM"}, {"measurement": "EC50", "setting": "[6]", "result": 84000, "unit": "nM"}]}]}
